The source of these data is paper PMC7114229 (Antiviral Research, 2019).

Like-named read-outs stand apart in the source and are kept apart here.

One data set has as its target gp120 (Human immunodeficiency virus type 1 group M subtype B, UniProt P03375). Nature of the data set: biochemical. Format: binding, HIV.
Data set [1] can be described thus: in vitro. As to conditions: human.
For another data set, the system named is HIV-1 (NL4.3). Description: Anti-HIV-1 activity in MT-4 cell cultures.
The test system of another data set is HIV-2 (ROD). Description: Anti-HIV-2 activity in MT-4 cell cultures.
The nature of data set [2]: in vitro. The note with it: human. This is another data set of the same source.
Data set [3] concerns EV71 BrCr laboratory-adapted strain. Description: Anti-EV71 assay, BrCr laboratory-adapted strain in RD cells. As to conditions: Enterovirus A.
The subject of data set [4] is EV71 VP1_S184T_ P246S (RES). Format: cell-based.
A further data set has as its system MT-4 cells. As to conditions: read-out: CC50 (MT-4); MT-4 cultures; host cell viability.

Usually EC50 stands for the concentration needed to bring the measured effect to its halfway point. Regarding `CN[C@@H]1[C@H](O[C@@H]2OC[C@@H](O)[C@H](O)[C@H]2O)[C@@H](O)[C@H](O[C@H]2c3cc(C)c(C(=O)N[C@H](C)C(=O)O)c(O)c3-c3c(cc4c(c3O)C(=O)c3cc(OC)cc(O)c3C4=O)[C@@H]2O)O[C@@H]1C` [PRM-A, pradimycin A], the Kd at gp120 (KD (10^−6) (M), apparent KD, SPR, three replicates) was 6.92e-06 M; at gp120 (apparent KD for binding to gp120, SPR), 6.9e-06 M. The kon at gp120 (read-out: Ka (10^3) (1/M.s)) turned out to be 2760 ± 1000 M⁻¹ s⁻¹. Besides, the CC50 in the data set “in vitro [1]” is over 100 µM. Besides, the EC50 amounted to 3.3 ± 1.2 µM in the data set with HIV-1 (NL4.3) (Human immunodeficiency virus 1, MT4, read-out: HIV-1 EC50) and 5.9 ± 3.7 µM with HIV-2 (ROD) (Human immunodeficiency virus 2, MT4, read-out: HIV-2 EC50).
Broadly, the EC90 is the concentration at which the effect reaches the 90% level. `CCOC(=O)c1ccc(OCCC2CCN(c3ccc(C)nn3)CC2)cc1` [Pirodavir, pirodavir] returned a CC50 in “in vitro [2]” of over 100 µM. For the same molecule, the EC90 in data set [3] (EV71, RD, read-out: EV71 EC90) was 0.6 ± 0.2 µM.
As to `CCOC(=O)/C=C/[C@H](C[C@@H]1CCNC1=O)NC(=O)[C@@H](CC(=O)[C@@H](NC(=O)c1cc(C)on1)C(C)C)Cc1ccc(F)cc1` [Rupintrivir, rupintrivir], in data set [4] (EV-71 variant (RES)), the “antiviral activity against the mutant virus strain” value is listed as “retained full antiviral activity”. In addition, the EC50 is 0.016 ± 0.006 µM in data set [4] (read-out: VP1_S184T_ P246S (RES) EC50) and 0.014 ± 0.004 µM in data set [3] (EV71|EVA71, RD, read-out: EV-A71 BrCr (WT) EC50).
dextran sulfate-5000 [DS-5000]: in the data set with MT-4 cells, the CC50 is over 20 µM. Besides, the EC50 with HIV-1 (NL4.3) (read-out: HIV-1 EC50, MT-4 cultures, inhibition of virus-induced cytopathicity by 50%) was 0.07 ± 0.02 µM; in the data set with HIV-2 (ROD) (read-out: HIV-2 EC50, MT-4 cultures, inhibition of virus-induced cytopathicity by 50%) it was 0.03 ± 0.01 µM.
